# Measured values from patent US6967075B2 (priority 2000, dated 2005).
# Entries after “also recorded” stand apart in the source; their conditions may differ.
# Molecular target: T1, HCV NS5B (Hepatitis C virus genotype 1b, UniProt P26663)
# Test: not given
# Assay type: biochemical
# Details: not given
# Target sequence in this assay (P26663 2420-2989 limits assumed): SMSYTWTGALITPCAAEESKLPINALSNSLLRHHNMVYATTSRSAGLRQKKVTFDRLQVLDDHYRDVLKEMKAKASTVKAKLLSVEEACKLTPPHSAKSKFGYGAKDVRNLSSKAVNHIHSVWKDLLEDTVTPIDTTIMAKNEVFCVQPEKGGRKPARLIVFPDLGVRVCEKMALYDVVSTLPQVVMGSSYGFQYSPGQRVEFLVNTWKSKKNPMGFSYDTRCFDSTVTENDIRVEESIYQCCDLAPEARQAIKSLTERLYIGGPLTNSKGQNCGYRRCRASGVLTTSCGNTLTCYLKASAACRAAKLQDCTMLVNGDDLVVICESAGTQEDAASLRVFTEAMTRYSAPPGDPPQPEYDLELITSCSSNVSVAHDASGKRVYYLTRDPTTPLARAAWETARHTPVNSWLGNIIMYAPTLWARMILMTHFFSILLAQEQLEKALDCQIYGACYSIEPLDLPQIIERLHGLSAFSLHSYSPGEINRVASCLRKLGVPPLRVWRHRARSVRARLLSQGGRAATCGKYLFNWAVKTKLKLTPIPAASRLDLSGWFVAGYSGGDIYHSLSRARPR
row,Compound,extension/utilization of end-labeled RNA
1,"5′ GCA UGG GCC C 3′ [sym/sub RNA, reference compound]",no primer extension was observed

# Molecular target: T1, HCV NS5B
# Test: Nucleotide incorporation assay using end-labeled primers
# Assay type: biochemical
# Details: 5 μM template, 10 μM end-labeled primer, 100 μM NTP, 30° C. for 30 min
# Experimental: Nucleotide incorporation assay using end-labeled primers. A standard nucleotide incorporation reaction was performed in a 20 μl volume, containing 50 mM HEPES (pH 7.3), 10 mM β-mecaptoethanol, 50 mM NaCl, 5 mM MgCl2, 5 μM of template RNA, 10 μM of end-labeled primer, 3 to 5 μM of polymerase protein and 100 μM of NTP substrate, as described. Single nucleotide incorporation by HCV replicase was tested using radiolabeled diguanylate (^33pGpG) as a primer and three RNA templates corresponding to SEQ ID NO: 11 [(ACC)7], SEQ ID NO: 9 [(tJCC)7], and SEQ ID NO: 10 [(GCC)7]. Reactions involved ^33pGpG primer alone and with (1) (ACC)7 RNA as the template plus either no NTP, 100 μM UTP or 100 μM ATP, (2) (UCC)7 RNA as the template plus either no NTP, 100 μM ATP or 100 μM CTP, and (3) (GCC)7 RNA as the template plus either no NTP, 100 μM CTP or 100 μM ATP. To show the efficiency of guanylate primers of different length in priming nucleotide incorporation, four template-primer pairs were tested in a standard primer-extension assay: […] (SEQ ID NO: 10)/^33pGG; […] (SEQ ID NO: 12)/^33pGGG; […],(SEQ ID NO-13)/^33pGGGG (SEQ ID NO: 32); and […] (SEQ ID NO: 7)/^33pGpqGG (SEQ ID NO: 33). Reactions were performed using 100 μM of CTP or without a nucleotide substrate.
# Reactions contained (UCC)7 alone, (UCC)7 plus 100 μM of ATP, (UCC)6AAA alone, or (UCC)6AAA plus 100 μM of ATP. In addition, RNAs of SEQ ID NOS: 11, 30 and 31 were tested for single-nucleotide incorporation with ^33pGpG as the primer.
# To show the minimum length requirement for a template RNA of the invention RNA templates of decreasing length (21 to 4-nt), e.g., SEQ ID NOS: 8 and 14-20 were tested for the ability to direct single-nucleotide incorporation using ^33pGpG as the primer. All reactions contained 100 μM of ATP and one template RNA. Multiple cycles of nucleotide incorporation were performed using a 10-mer RNA and ^33pGpG as the primer. Reactions contained either 100 μM of ATP alone, or 100 μM each of ATP and CTP, or 100 μM each of ATP, CTP and GTP. The reactions were quenched at different times from 15 to 900 seconds.
# Various dinucleotide primers for RNA synthesis and nucleotide incorporation using HCV 3′ terminal sequences as template were used. The following RNA templates were used: 5′ AAAAAACAGUCC 3′ (SEQ ID NO: 17), 5′ AAAACAGUGC 3′ (SEQ ID NO: 21), 5′ AAAAAACAGUCG 3′ (SEQ ID NO: 22), 5′ AAAAAACAGUGG 3′ (SEQ ID NO: 23), 5′ AAAAAACAGUAC 3′ (SEQ ID NO: 24), 5′ AAAAAACAGUCA 3′ (SEQ ID NO: 25), which differ by two residues at the 3′ terminal positions. Dinucleotide primers, ^33pGpG, ^33pGpC, ^33pCpG, ^33pCpC, ^33pGpU and ^33pUpG, were paired with respective templates in the absence or presence of 100 μM ATP substrate. RNA templates, 3′(+) and 3′(−), consisted of the 3′ terminal sequences of positive-strand and negative-strand HCV genome, respectively. Primers ^33pApC and ^33pGpC were used for 3′(+) and 3′(−) RNA, respectively, in the absence of nucleotide substrate and in the presence of ATP or CTP.
# Reaction mixtures were incubated at 30° C. for 30 min, followed by phenol and chloroform extraction and ethanol precipitation in the presence of glycogen carrier. Product was dissolved in a urea/TBE sample buffer (Novex, San Diego, Calif.) and separated on a 23 to 25% PAGE/6 M Urea/1× TBE gel. The gel was then covered with plastic wrap and exposed to an X-ray film.
row,Compound,nucleotide incorporation (extension of end-labeled primer)
1,"5′ ACCACCACCACCACCACCACC 3′ (ACCACCACCACCACCACCACC; RNA, backbone not given here) [(ACC)7]",single nucleotide incorporation was observed only when UTP was used
2,"5′ AUC AGG GGG CUG GC 3′ (AUCAGGGGGCUGGC; RNA, backbone not given here) [SEQ ID NO: 27, 3′ terminus of HCV negative-strand RNA genome]",single-nucleotide incorporation was detected; also recorded: higher overall activity
3,"5′ C ACCACCACCACCACCACCAC 3′ (CACCACCACCACCACCACCAC; RNA, backbone not given here) [SEQ ID NO: 31]",significant reduction in activity
4,"5′ CC ACC ACC ACC ACC ACC ACCA 3′ (CCACCACCACCACCACCACCA; RNA, backbone not given here) [SEQ ID NO: 30]",significant reduction in activity
5,"5′ GCCGCCGCCGCCGCCGCCGCC 3′ (GCCGCCGCCGCCGCCGCCGCC; RNA, backbone not given here) [(GCC)7]","only the correct nucleotide, ATP or CTP, resulted in primer extension"
6,"5′ UCCUCCUCCUCCUCCUCCUCC 3′ (UCCUCCUCCUCCUCCUCCUCC; RNA, backbone not given here) [(UCC)7]","only the correct nucleotide, ATP or CTP, resulted in primer extension"
7,"5′ UCU GCA GAU CAU GU 3′ (UCUGCAGAUCAUGU; RNA, backbone not given here) [SEQ ID NO: 26, 3′ terminus of HCV positive-strand RNA genome]",single-nucleotide incorporation was detected
8,GGG [^33pGGG],supported nucleotide incorporation with the highest efficiency
9,"GGGG (5' 33P label, further chemistry not given here) [^33pGGGG]",detrimental to the activity
10,"GGGGG (RNA, backbone not given here; further chemistry not fully specified) [^33pGGGGG]",detrimental to the activity
11,pGpC [GC],capable of priming nucleotide (AMP) incorporation
12,pGpG [GG],capable of priming nucleotide (AMP) incorporation

# Same assay, conditions: 5 μM template, 10 μM end-labeled primer, 100 μM NTP, 30° C. for 30 min; listed as 33pGG
row,Compound,nucleotide incorporation (extension of end-labeled primer)
1,pGpG [GG],supported nucleotide incorporation with the highest efficiency

# Molecular target: poliovirus 3D RdRp (Poliovirus type 1, UniProt P03300)
# Test: not given
# Details: cited from earlier work
# poliovirus 3D RdRp, sequence (P03300 1749-2209 limits assumed): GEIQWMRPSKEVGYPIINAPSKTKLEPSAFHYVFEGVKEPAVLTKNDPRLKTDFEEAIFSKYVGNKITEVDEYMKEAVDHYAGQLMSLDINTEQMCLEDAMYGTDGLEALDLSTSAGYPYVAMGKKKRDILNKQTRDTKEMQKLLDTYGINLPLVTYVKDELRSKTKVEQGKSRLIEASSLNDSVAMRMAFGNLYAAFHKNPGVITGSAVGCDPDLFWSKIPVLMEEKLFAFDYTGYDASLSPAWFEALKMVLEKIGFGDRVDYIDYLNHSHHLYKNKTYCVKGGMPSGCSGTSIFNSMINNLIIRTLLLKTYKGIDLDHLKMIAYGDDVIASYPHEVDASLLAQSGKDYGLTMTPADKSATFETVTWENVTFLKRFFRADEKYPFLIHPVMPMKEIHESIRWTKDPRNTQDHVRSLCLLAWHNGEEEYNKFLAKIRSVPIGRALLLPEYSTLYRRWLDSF
row,Compound,inhibition of poliovirus 3D RdRp
1,"CN1C(=O)[C@]23CC4=CC=C[C@H](O)[C@H]4N2C(=O)[C@@]1(CO)SS3 [Gliotoxin, gliotoxin]",known poliovirus 3D RdRp inhibitor

# Molecular target: HCV NS5B replicase (Hepatitis C virus genotype 1b, UniProt P26663)
# Test: not given
# Details: cited from earlier work
# HCV NS5B replicase, sequence (P26663 2420-3010 limits assumed): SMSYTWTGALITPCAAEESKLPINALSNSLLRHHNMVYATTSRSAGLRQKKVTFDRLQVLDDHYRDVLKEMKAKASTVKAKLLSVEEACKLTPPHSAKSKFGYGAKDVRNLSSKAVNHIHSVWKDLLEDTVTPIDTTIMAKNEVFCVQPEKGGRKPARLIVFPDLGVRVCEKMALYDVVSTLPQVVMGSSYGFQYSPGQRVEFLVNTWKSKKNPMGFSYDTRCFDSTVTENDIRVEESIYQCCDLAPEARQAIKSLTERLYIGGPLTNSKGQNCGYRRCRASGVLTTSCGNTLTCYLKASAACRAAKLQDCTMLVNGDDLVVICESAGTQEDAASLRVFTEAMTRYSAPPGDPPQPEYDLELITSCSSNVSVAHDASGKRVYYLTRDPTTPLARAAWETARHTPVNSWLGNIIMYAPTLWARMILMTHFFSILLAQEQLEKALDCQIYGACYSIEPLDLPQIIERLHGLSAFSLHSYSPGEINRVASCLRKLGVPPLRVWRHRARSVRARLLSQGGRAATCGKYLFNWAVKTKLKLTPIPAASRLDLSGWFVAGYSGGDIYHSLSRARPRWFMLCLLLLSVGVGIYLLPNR
row,Compound,inhibition of HCV NS5B replicase
1,"CN1C(=O)[C@]23CC4=CC=C[C@H](O)[C@H]4N2C(=O)[C@@]1(CO)SS3 [Gliotoxin, gliotoxin]",inhibits HCV NS5B replicase in a dose dependent manner
